In US20240336594A1, “SIX-MEMBERED ARYL OR HETEROARYL AMIDES, AND COMPOSITION AND USE THEREOF” (BETTA PHARMACEUTICALS CO., LTD, priority 2021, published 2024) one finds IC50 data, which are given here for 26 compounds.

For this assay, the target named is T1, MALT1 (Homo sapiens, UniProt Q9UDY8).
T1 sequence (Q9UDY8 1-824): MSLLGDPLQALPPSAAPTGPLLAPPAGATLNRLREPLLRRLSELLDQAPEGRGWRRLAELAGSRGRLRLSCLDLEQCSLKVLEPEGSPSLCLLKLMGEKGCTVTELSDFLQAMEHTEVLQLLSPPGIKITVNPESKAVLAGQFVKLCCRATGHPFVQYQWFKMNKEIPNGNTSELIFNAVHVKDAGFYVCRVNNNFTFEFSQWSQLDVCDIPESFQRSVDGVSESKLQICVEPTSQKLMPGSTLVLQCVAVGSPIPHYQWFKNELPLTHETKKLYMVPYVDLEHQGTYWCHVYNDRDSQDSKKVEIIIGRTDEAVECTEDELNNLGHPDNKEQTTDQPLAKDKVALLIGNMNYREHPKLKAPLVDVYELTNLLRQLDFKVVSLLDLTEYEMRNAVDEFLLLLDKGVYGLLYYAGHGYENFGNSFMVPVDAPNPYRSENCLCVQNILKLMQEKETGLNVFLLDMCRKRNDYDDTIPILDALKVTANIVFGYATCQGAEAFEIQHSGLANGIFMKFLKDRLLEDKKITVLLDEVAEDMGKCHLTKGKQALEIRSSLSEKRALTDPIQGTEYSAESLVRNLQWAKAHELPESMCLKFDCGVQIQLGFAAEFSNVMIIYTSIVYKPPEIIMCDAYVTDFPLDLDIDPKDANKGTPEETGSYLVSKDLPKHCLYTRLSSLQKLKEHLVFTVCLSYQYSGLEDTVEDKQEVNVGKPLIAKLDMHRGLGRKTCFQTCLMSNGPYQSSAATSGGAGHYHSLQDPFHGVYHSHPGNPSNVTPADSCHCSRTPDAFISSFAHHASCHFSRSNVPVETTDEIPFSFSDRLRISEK
The assay can be described thus: MALT1 protease inhibition assay (AMC-labeled peptide, fluorescence 360/460). Type of assay: biochemical. As to conditions: substrate Ac-LRSR-AMC, 15 min preincubation, 90 min at 25° C. The protocol:
Test compounds of the present invention (in 100% DMSO) were spotted into a 384-well dilution plate and serially diluted to the required concentrations with DMSO. Then, 0.2 μL of the test compounds were transferred into a new 384-well reaction plate by Echo following centrifugation. The MALT enzyme and its substrate, AMC-labeled peptide, were prepared in 1× protease buffer to yield 2× enzyme solution and 2× peptide solution. Subsequently, 10 μL of 2× enzyme solution was added into the 384-well reaction plate, incubating with the test compounds for 15 minutes at 25° C. After that, 10 μL of 2× peptide solution was added into the plate, continuing to incubate for 90 minutes at 25° C. The plate was then placed on an Envision multifunctional microplate reader to collect raw data, which would be converted into inhibition rate:
Inhibition rate %=(max−sample)/(max−min)*100%. • “max” values were measured using the reaction with enzyme but no compound treated, while “min” values were generated from control wells containing assay buffer without enzyme.
Curve fitting was done with Graphpad Prism software to determine the IC50 values. The specific experimental operations are as follows:
58.82 g Na Citrate·2H2O powder was added into 140 mL ddH2O and mixed in a 37° C. water bath. Once there were no visible particles, the remaining solutions were added successively with continuous stirring for 10 minutes. The final volume was adjusted to 200 mL. The buffer was stored at room temperature. DTT was added before use.
• 1) All test compounds were diluted from 10 mM stock solution into 1 mM in a 384 well dilution plate (labcyte, PP-0200); • 2) Ten various concentrations of the diluted compound solution above were obtained by serial dilution at an equal ratio of 1:3; • 3) 0.2 μL DMSO was transferred to two empty wells of the 384 reaction plate as blank controls without compound and enzyme respectively; • 4) 0.2 μL of the test compound at different concentrations was also transferred into the 384 reaction plate by Echo, with two duplicate wells for each concentration, then the plate was centrifuged at 1000 rpm for 1 min.
• 1) The MALT1 protease and AMC-labeled peptide was prepared in 1× protease buffer to obtain 2× enzyme solution and 2× peptide solution. 10 μL of 2× enzyme solution was added into the 384-well reaction plate. The plate was centrifuged at 1000 rpm for 1 min and incubated for 15 min at 25° C. • 2) 10 μL of 2× peptide solution was then transferred to the 384 reaction plate, and the plate was centrifuged at 1000 rpm for 1 min and incubate for 90 min at 25° C.

Bounds are passed on as bounds.

“5-(2′-amino-5-chloro-2,4′- difluoro-[1,1′-biphenyl]-4- carboxamido)-3-chloro-N- (2,2-difluoro-2λ3- ethyl)picolinamide [Example A457]” came in with an IC50 of 0.01 to 0.1 µM.

As for `C#Cc1cc(F)cnc1-c1cc(Cl)c(C(=O)Nc2ccnc(C(F)(F)F)c2)cc1F` [Example A324, 2-chloro-4-(3-ethyny1-5-fluoropyridin-2-y1)-5-fluoro-N-(2-(trifluoromethyl)pyridin-4-yl)benzamide], the IC50 was not above 0.01 µM.

Take `C#Cc1cnccc1-c1c(F)c(F)c(C(=O)Nc2cnc(-n3nccn3)c(Cl)c2)c(F)c1F` [Example A333, N-(5-chloro-6-(2H-1,2,3-triazol-2-yl)pyridin-3-y1)-4-(3-ethynylpyridin-4-y1)-2,3,5,6-tetrafluorobenzamide]: the IC50 was not above 0.01 µM.

The compound `C#Cc1cc(F)cnc1-c1cc(Cl)c(C(=O)Nc2cnc(-n3nccn3)c(Cl)c2)cc1F` [Example A335, 2-chloro-N-(5-chloro-6-(2H-1,2,3-triazol-2-yl)pyridin-3-y1)-4-(3-ethyny1-5-fluoropyridin-2-y1)-5-fluorobenzamide] came in with an IC50 not above 0.01 µM.

`C#Cc1cnccc1-c1cc(Cl)c(C(=O)Nc2ccc(OC)c(Cl)c2)cc1F` [Example A338, 2-chloro-N-(3-chloro-4-methoxyphenyl)-4-(3-ethynylpyridin-4-y1)-5-fluorobenzamide]: the IC50 was not above 0.01 µM.

`C=CC(=O)Nc1cnccc1-c1cc(Cl)c(C(=O)Nc2cnc(-n3nccn3)c(Cl)c2)cc1F` [Example A342, 4-(3-acrylamidopyridin-4-y1)-2-chloro-N-(5-chloro-6-(2H-1,2,3-triazol-2-y1)pyridin-3-y1)-5-fluorobenzamide] returned an IC50 not above 0.01 µM.

On to `C=Cc1cnccc1-c1cc(Cl)c(C(=O)Nc2cnc(-n3nccn3)c(C(F)(F)F)c2)cc1F` [Example A346, N-(6-(2H-1,2,3-triazol-2-yl)-5-(trifluoromethyl)pyridin-3-yl)-2-chloro-5-fluoro-4-(3-vinylpyridin-4-y1)benzamide], for which the IC50 was not above 0.01 µM.

Compound `C#Cc1cc(C(=O)Nc2cnc(-n3nccn3)c(Cl)c2)c(C)cc1-c1ccc(F)cc1N` [Example A409] gave an IC50 not above 0.01 µM.

Compound `C#Cc1cccc(Cl)c1-c1cc(Cl)c(C(=O)Nc2cnc(-n3nccn3)c(C(F)(F)F)c2)cc1F` [Example A413] yielded a half-inhibitory concentration (IC50) not above 0.01 µM.

In turn, `C#Cc1cc(C(=O)Nc2cnc(-n3nccn3)c(Cl)c2)c(C)cc1-c1ccc(F)cc1Cl` [Example A414, 2′-chloro-N-(5-chloro-6-(2H-1,2,3-triazol-2-yl)pyridin-3-yl)-2-ethynyl-4′-fluoro-5-methyl-[1,1′-biphenyl]-4-carboxamide] gave an IC50 of 0.01 to 0.1 µM.

In the case of `C#Cc1cc(F)ccc1-c1cc(C)c(C(=O)Nc2cnc(-n3nccn3)c(Cl)c2)cc1C#C` [Example A415], the IC50 was in the range of 0.01 to 0.1 µM.

In the case of `C#Cc1cc(C(=O)Nc2cnc(-n3nccn3)c(Cl)c2)c(C)cc1-c1ccc(F)nc1N` [Example A416, 4-(2-amino-6-fluoropyridin-3-yl)-N-(5-chloro-6-(2H-1,2,3-triazol-2-yl)pyridin-3-yl)-5-ethynyl-2-methylbenzamide], the IC50 was in the range of 0.1 to 0.5 µM.

`C#Cc1cc(C(=O)Nc2cnc(-n3nccn3)c(Cl)c2)c(C)cc1-c1ccncc1OC` [Example A417, N-(5-chloro-6-(2H-1,2,3-triazol-2-yl)pyridin-3-yl)-5-ethynyl-4-(3-methoxypyridin-4-yl)-2-methylbenzamide] registered an IC50 of 0.01 to 0.1 µM.

In turn, `Nc1cc(F)ccc1-c1cc(Cl)c(C(=O)Nc2cnc(-n3nccn3)c(Cl)c2)cc1C1=CCCCC1` [Example A418, 2-amino-5′-chloro-N-(5-chloro-6-(2H-1,2,3-triazol-2-yl)pyridin-3-yl)-4-fluoro-2″,3″,4″,5″-tetrahydro-[1,1′:2′,1″-terphenyl]-4′-carboxamide] came in with an IC50 of more than 0.5 µM.

Consider `Cc1cc(-c2ccc(F)cc2Cl)c(-c2ccccc2)cc1C(=O)Nc1cnc(-n2nccn2)c(Cl)c1` [Example A419, 2-chloro-N-(5-chloro-6-(2H-1,2,3-triazol-2-yl)pyridin-3-yl)-4-fluoro-5′-methyl-[1,1′:2′,1″-terphenyl]-4′-carboxamide], for which the IC50 is more than 0.5 µM.

Consider `Cc1cc(-c2ccc(F)cc2N)c(C2=CCCC2)cc1C(=O)Nc1cnc(-n2nccn2)c(Cl)c1` [Example A420, 2′-amino-N-(5-chloro-6-(2H-1,2,3-triazol-2-yl)pyridin-3-yl)-2-(cyclopent-1-en-1-yl)-4′-fluoro-5-methyl-[1,1′-biphenyl]-4-carboxamide], for which the IC50 is more than 0.5 µM.

`Cc1cc(-c2ccc(F)cc2N)c(-c2ccccc2)cc1C(=O)Nc1cnc(-n2nccn2)c(Cl)c1` [Example A421, 2-amino-N-(5-chloro-6-(2H-1,2,3-triazol-2-yl)pyridin-3-yl)-4-fluoro-5′-methyl-[1,1′:2′,1″-terphenyl]-4′-carboxamide] yielded an IC50 of more than 0.5 µM.

On to `C#Cc1cc(F)ccc1-c1cc(C)c(C(=O)Nc2cnc(-n3nccn3)c(Cl)c2)cc1-c1ccccc1` [Example A422, N-(5-chloro-6-(2H-1,2,3-triazol-2-yl)pyridin-3-yl)-2-ethynyl-4-fluoro-5′-methyl-[1,1′:2′,1″-terphenyl]-4′-carboxamide], for which the IC50 was more than 0.5 µM.

For the compound `CC#Cc1cc(C(=O)Nc2cnc(-n3nccn3)c(Cl)c2)c(C)cc1-c1ccc(F)cc1N` [Example A423], the IC50 fell in the range of 0.01 to 0.1 µM.

On to `C=Cc1cc(C(=O)Nc2cnc(-n3nccn3)c(Cl)c2)c(Cl)cc1-c1ccc(F)cc1N` [Example A424, 2′-amino-5-chloro-N-(5-chloro-6-(2H-1,2,3-triazol-2-yl)pyridin-3-yl)-4′-fluoro-2-vinyl-[1,1′-biphenyl]-4-carboxamide], for which the IC50 fell in the range of 0.01 to 0.1 µM.

For the compound `C=Cc1cc(C(=O)Nc2cnc(-n3nccn3)c(Cl)c2)c(C)cc1-c1ccc(F)cc1N` [Example A425], the IC50 lay within 0.01 to 0.1 µM.

For the compound `C#Cc1cnccc1-c1cc(Cl)c(C(=O)Nc2cnc(C(=O)NCCC)c(Cl)c2)cc1F` [Example A430, 3-chloro-5-(2-chloro-4-(3-ethynylpyridin-4-yl)-5-fluorobenzamido)-N-propylpicolinamide], the IC50 is not above 0.01 µM.

With `C#Cc1cnccc1-c1cc(Cl)c(C(=O)Nc2cnc(C(=O)NCCOC(F)(F)F)c(Cl)c2)cc1F` [Example A431, 3-chloro-5-(2-chloro-4-(3-ethynylpyridin-4-yl)-5-fluorobenzamido)-N-(2-(trifluoromethoxy)ethyl) picolinamide], the IC50 lay within 0.01 to 0.1 µM.

`C#Cc1cnccc1-c1cc(Cl)c(C(=O)Nc2cnc(C(=O)NCCc3ccccc3)c(Cl)c2)cc1F` [Example A432, 3-chloro-5-(2-chloro-4-(3-ethynylpyridin-4-yl)-5-fluorobenzamido)-N-phenethylpicolinamide] returned an IC50 of 0.01 to 0.1 µM.

`C#Cc1cnccc1-c1cc(Cl)c(C(=O)Nc2cnc(C(=O)NCc3ccoc3)c(Cl)c2)cc1F` [Example A433, 3 3-chloro-5-(2-chloro-4-(3-ethynylpyridin-4-yl)-5-fluorobenzamido)-N-(furan-3-ylmethyl)picolinamide]: the IC50 lay in the range of 0.01 to 0.1 µM.

On to `C#Cc1cnccc1-c1cc(Cl)c(C(=O)Nc2cnc(C(=O)NCC(C)(C)C)c(Cl)c2)cc1F` [Example A434, 3-chloro-5-(2-chloro-4-(3-ethynylpyridin-4-yl)-5-fluorobenzamido)-N-neopentylpicolinamide], for which the IC50 lay in the range of 0.01 to 0.1 µM.

Usually IC50 stands for the concentration that gives 50% inhibition. Low values mean greater potency, high ones weaker potency.
